Results taken from US11400131B2, “Multi-peptide composition” (King's College London, priority 2015, dated 2022).

Assays:
proinsulin = test: Serum proinsulin specific IgG after mono-/multi-PI treatment; format: in vivo, HLA-DR4-Tg mice; conditions: 4 weekly intradermal injections of individual peptide; FIG. 4E-F
Experimental: In brief, tolerance to proinsulin was breached in mice by subcutaneous immunisation with 100 μg proinsulin protein emulsified in CFA and treatment with intraperitoneal pertussis toxin immediately and 1 day after immunisation. Mice then received 4 weekly intradermal treatments of 10 μg control-PI or proinsulin mono/multi-PI (C13-32 (SEQ ID NO: 4); C19-A3 (SEQ ID NO: 5); C22-A5 (SEQ ID NO:6)), before subcutaneous immunisation with 100 μg proinsulin protein emulsified in IFA to boost the ongoing autoimmune response (A). Lymph nodes (LNs) were harvested 7 days later and LN cell suspensions were cultured with or without proinsulin protein or peptide (C13-32; C19-A3; C22-A5) for 48 hours in vitro. Proliferation of CD4^+ T cells and IFN-γ production were analysed by CFSE dilution at 96 hours (B) and ELISA at 48 hours (C) in response to in vitro stimulation with 50 μg/mL proinsulin protein and 10 μg/mL peptides (C13-32; C19-A3; C22-A5). Serum levels of proinsulin specific IgG1 were measured at day 42 (D). Percentages of proliferating CD3^+CD4^+CD25^highFoxP3^+ Tregs were measured by flow cytometry in LN cultures at day 42 (E). Data are representative of three independent experiments. *p<0.05, **p<0.01, ***p<0.001; Statistical significance was determined by one-way ANOVA or Student's t test. 15 mice per group in B and C; 5 mice per group D-F.
Tolerance to proinsulin was breached in mice by subcutaneous immunisation with 100 μg proinsulin protein emulsified in CFA and treatment with intraperitoneal pertussis toxin immediately and 1 day after immunisation. […] Proliferation and cytokine production were analysed by thymidine incorporation and ELISA and the mean±SEM proliferation in response to 50 μg/mL proinsulin (B) and IFN-γ production in response to 50 μg/mL proinsulin (C) or 10 μg/mL proinsulin peptides, in DLN cultures is shown. Percentage of proliferating CD3^+CD4^+CD25^highFoxP3^+ Tregs was measured by flow cytometry in LN cultures at day 42 (E). Serum levels of proinsulin specific IgG1 were measured at day 42 (F). […]

[1] = test system: peripheral blood mononuclear cells; test: IFN-γ ELISPOT response of Type 1 diabetes patients to nested IA-2 peptides; format: cell-based, human; conditions: nested peptides compared with parental sequences; response positive when SI ≥3; FIG. 1
Experimental: Detection of interferon (IFN)-γ by CD4^+ T cells in response to peptide stimulation was carried out using an enzyme-linked immunospot (ELISPOT) assay that has significant discriminative ability for type 1 diabetes in blinded proficiency testing, as previously described (Arif, S. et al. J Clin Invest 2004; 113: 451-463 and Herold, K. C. et al. Diabetes 2009; 58: 2588-2595). Data are expressed as the mean number of spots per triplicate and compared with the mean spot number in the presence of diluent alone (stimulation index; SI). A response is considered positive when the SI is ≥3 using cut-offs determined using receiver-operator characteristic plots as previously described (Arif, S. et al. J Clin Invest 2004; 113: 451-463).
The results are shown for 3 parental sequences (cross-hatched), and these are compared with shorter nested sequence peptides. Responses represent IFN-γ production by peripheral blood mononuclear cells cultured with each peptide, as detected using an enzyme-linked immunospot assay.

C13-32: fragment of PI, comprising residues C13-C32 (GGGPGAGSLQPLALEGSLQK; listed as Homo sapiens) [Group C13-32]
therapeutic potency of mono-PI in contrast to multi-PI (proinsulin): lower levels of therapeutic potency

718-36: fragment of IA-2, comprising residues 718-736 (AYQAEPNTCATAQGEGNIK; listed as Homo sapiens) [Group 718-36]
proportion of Type 1 diabetes patients responding (IFN-γ production) [1]: preferential sequences

C19-A3: fragment of PI, comprising residues C19-A3 (GSLQPLALEGSLQKRGIV; listed as Homo sapiens) [Group C19-A3]
therapeutic potency of mono-PI in contrast to multi-PI (proinsulin): lower levels of therapeutic potency

C22-A5: fragment of PI, comprising residues C22-A5 (QPLALEGSLQKRGIVEQ; listed as Homo sapiens) [Group C22-A5]
therapeutic potency of mono-PI in contrast to multi-PI (proinsulin): lower levels of therapeutic potency

855-67: fragment of IA-2, comprising residues 855-867 (YLKNVQTQETRTL; listed as Homo sapiens) [Group 855-67]
proportion of Type 1 diabetes patients responding (IFN-γ production) [1]: preferential sequences
